Source: ChEMBL document CHEMBL4043252, “Discovery and structure-based design of 4,6-diaminonicotinamides as potent and selective IRAK4 inhibitors” (Bioorg Med Chem Lett, 2017)

Experiments:
Liver = conditions: human, microsomes
physchem = conditions: PAMPA, pH 7.4
in vitro = conditions: mouse, liver microsomes

Row | Structure (SMILES) | Stability (Liver) [%] | Papp (physchem) [×10⁻⁶ cm/s] | remaining at 10 min (in vitro) [%]
1 | CNC(=O)c1cnc(Nc2ccc3ncsc3c2)cc1N[C@@H](c1ccccc1)[C@H](O)CO | 90 | 1.9 | 21 to 31
2 | CNC(=O)c1cnc(Nc2ccc(OC)c(F)c2)cc1N[C@@H](c1ccccc1)[C@H](O)CO | 80 | 6.3 | 20
